target: T1, AFF4-CCNT1 interaction (GST-CCNT1 AA 1-300 and biotin-AFF4 peptide AA 32-67) (Homo sapiens, UniProt O60563); assay: AlphaLISA assay of the AFF4-CCNT1 interaction (Alpha Screen); assay type: binding; conditions: not given
T1 construct: Recombinant GST-CCNT1 (1-300), which was purified by Glutathione Superflow Agarose from Rosetta cells; VCPBIO (peptide synthesis) Addgene P#432; host or cells: Rosetta cells
Excerpt: FIG. 1. Peptidomimetic identification of disruptors of the AFF4-CCNT1 interaction within the Super Elongation Complex. (A) Schematic for the identification of small molecule inhibitors of the AFF4-CCNT1 interaction using in silico high-throughput screening. Compounds from the ZINC database were docked with the AFF4-CCNT1 structure (4IMY) using a three-tier glide-docking algorithm, which led to 40 candidates. Residues forming the deep binding pocket of CCNT1 are labeled orange and residues of the AFF4 peptide are labeled red. (B) Validation screening identified KL-1 as a potential SEC disruptor using AlphaLISA screening. GST-CCNT1 (AA 1-300) and biotin-labeled AFF4 peptide (AA 32-67) were used to measure the AFF4-CCNT1 interaction with the AlphaLISA assay. (C) Similarity search for KL-1-like molecules identified KL-2. The peptidomimetic potential of KL-1 and KL-2 can be seen by overlaying them with the AFF4 peptide LFAEP structure. (D) Dose-dependent inhibition of KL-1 and KL-2 on AFF4-CCNT1 interaction. The Ki constants of both compounds were measured with the AlphaLISA assays. (E) Treatment of HEK293T cells with KL-1 and KL-2 results in reduced protein levels of SEC components AFF1 and AFF4 but not CDK9 or CCNT1. HEK293T cells were treated with 20 μM of SEC inhibitors KL-1 or KL-2 for 6 hr. 5 μl, 10 and 20 μl cell lysates were loaded and the protein levels of AFF1, AFF4, CCNT1, CDK9 and Tubulin (load control) were determined by western blotting.
FIG. 8, related to FIG. 1. Peptidomimetic identification of disruptors of the AFF4-CCNT1 interaction within the Super Elongation Complex. (A) Schematic of AlphaLISA assay of the AFF4-CCNT1 interaction. Anti-GST AlphaLISA acceptor beads and AlphaScreen streptavidin donor beads (Perkin Elmer) were used to detect the interaction of GST-CCNT1 (AA1-300) and biotin-AFF4 (AA32-67). (B-C) Optimization of the AlphaLISA assay with various biotin-AFF4 peptide and GST-CCNT1 concentrations. No CCNT1 (B) and mutant AFF4 (C) were used as negative controls. Data are represented as Mean+/−SD. (D) Scheme for chemical synthesis of SEC inhibitors KL-1 and KL-2. Reagents and conditions: a. LDA, THF, −78° C., 15 min., then diethyl oxalate, −78° C. to room temperature. b. NaOH, THF/H2O, room temperature, 15 min. c. EEDQ, 5-chloro-2-methylaniline, THF, room temperature, 24 hr. […] 293T cells were treated with 20 μM of KL-1 or KL-2 for 6 hr, and the protein levels of BRD2, BRD4, Pol II (RPB1), SPT5, MED26, MYC, HSP90 (load control) and Tubulin (load control) were measured by western blotting. (F) Treatment of HCT-116 cells with KL-1 and KL-2 reduced protein levels of SEC components AFF1 and AFF4 but not CDK9 or CCNT1. HCT-116 cells were treated with 20 μM of KL-1 or KL-2 for 6 hr, and the protein levels of AFF1, AFF4, CCNT1, CDK9 and Tubulin (load control) were determined by western blotting. (G-H) Treating cells with KL-1 and KL-2 results in reduced levels of AFF 1 and AFF4. FLAG-AFF1 (G) and FLAG-AFF4 (H) were expressed under the Tet-inducible promoter in HEK293T cells. Cells were treated with 20 μM of the indicated inhibitors for 6 hr for western blotting. […] RNA-seq was performed in HEK293T cells treated for 12 hr with 20 μM of the indicated inhibitors. The log2CPM (counts per million) of the SEC subunits were calculated with HTseq. KL-1 and KL-2 had no significant effects on CCNT1, CDK9 and AFF1 expression, but modest increases in the mRNA levels of AFF4 and ELL2 were observed (n=3). Unpaired two-way ANOVA was used for the statistical testes. **,p<0.05, ***,p<0.001.
To test if candidate compounds can disrupt the AFF4-CCNT1 interaction in vitro, we established and optimized a bead-based AlphaLISA assay with recombinant CCNT1 (1-300) protein and synthesized Biotin-AFF4 peptides (AA 32-67) (FIGS. 8A, 8B and 8C).
AlphaLISA Assay. The interaction of CCNT1-AFF4 was measured by Perkin Elmer's bead-based AlphaLISA assays. […]

T1 sequence (O60563 1-300): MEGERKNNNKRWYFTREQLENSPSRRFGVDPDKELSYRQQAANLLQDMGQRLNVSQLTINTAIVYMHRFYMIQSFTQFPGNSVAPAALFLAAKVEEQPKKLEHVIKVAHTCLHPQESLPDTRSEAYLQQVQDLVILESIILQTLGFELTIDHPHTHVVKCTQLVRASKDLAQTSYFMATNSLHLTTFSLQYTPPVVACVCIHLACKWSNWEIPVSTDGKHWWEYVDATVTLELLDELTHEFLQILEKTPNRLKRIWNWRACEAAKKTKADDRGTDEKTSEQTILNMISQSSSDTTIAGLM

SMILES	IC50 [µM]
Cc1nccnc1NC(=O)C(=O)CC(=O)c1ccc(F)cc1 [NUCC-0201596]	≥ 30
O=C(CC(=O)c1ccc(F)cc1)C(=O)NCc1ccccc1 [NUCC-0201688]	≥ 30
O=C(CC(=O)c1ccc(F)cc1)C(=O)NCc1ccncc1 [NUCC-0201689]	≥ 30
O=C(CC(=O)c1ccc(F)cc1)C(=O)Nc1nn[nH]n1 [NUCC-0201690]	9.88 ± 0.6
Cc1nc(NC(=O)C(=O)CC(=O)c2ccc(F)cc2)no1 [NUCC-0201691]	≥ 60
O=C(CC(=O)c1ccc(F)cc1)C(=O)Nc1nccs1 [NUCC-0201692]	20.8 ± 4.2
O=C(CC(=O)c1ccc(F)cc1)C(=O)Nc1cncc(F)c1 [NUCC-0201693]	7.42 ± 0.26
COc1cccc(C(=O)CC(=O)C(=O)Nc2ccc(F)c(F)c2)c1 [NUCC-0201921]	17.4
COc1cc(NC(=O)C(=O)CC(=O)c2cccc(OC)c2)cc(OC)c1 [NUCC-0201922]	14.3
COc1cccc(C(=O)CC(=O)C(=O)Nc2ccc(Cl)c(Cl)c2)c1 [NUCC-0201923]	12.8
COc1cccc(C(=O)CC(=O)C(=O)Nc2ccc(F)cc2)c1 [NUCC-0201924]	20
COc1cccc(C(=O)CC(=O)C(=O)Nc2cccc(Cl)c2)c1 [NUCC-0201925]	14.4
COc1cccc(C(=O)CC(=O)C(=O)Nc2cc(C(=O)O)ccc2C)c1 [NUCC-0201926]	15.2 ± 8
COc1cccc(C(=O)CC(=O)C(=O)Nc2cncnc2C)c1 [NUCC-0201927]	17.9 ± 2.4
COc1cccc(C(=O)CC(=O)C(=O)Nc2cccc(OC)c2C)c1 [NUCC-0201929]	15.7
COc1cccc(NC(=O)C(=O)CC(=O)c2ccc(F)cc2)c1C [NUCC-0202067]	21.3 ± 3.1
O=C(CC(=O)c1ccc(F)cc1)C(=O)Nc1cccc(Cl)c1 [NUCC-0202068]	11.4 ± 0.9
O=C(CC(=O)c1ccc(F)cc1)C(=O)NC1CCCC1 [NUCC-0202069]	≥ 60
Cc1ccccc1NC(=O)C(=O)CC(=O)c1ccc(F)cc1 [NUCC-0202092]	14.8 ± 2
Cc1ccc(Cl)cc1NC(=O)[C@@H](O)CC(=O)c1ccc(F)cc1 [NUCC-0202170]	30.6 ± 1.4

same assay, conditions: AlphaLISA; IC50 converted to Ki with the Cheng and Prusoff equation; read-out: Ki, inhibition of the AFF4-CCNT1 interaction

SMILES	Ki [µM]
Cc1ccc(Cl)cc1NC(=O)C(=O)CC(=O)c1ccc(F)cc1 [KL-2, N-(5-chloro-2-methylphenyl)-4-oxo-(4-fluorophenyl)-2-oxobutanamide]	1.5

same assay, conditions: tested at 20 μM

SMILES	disruption of the AFF4-CCNT1 interaction
CN1CC[C@H](c2c(O)cc(O)c3c(=O)cc(-c4ccccc4Cl)oc23)[C@H](O)C1 [flavopiridol, reference compound]	neither the pan-CDK9 kinase inhibitor flavopiridol nor the BET domain inhibitors disrupted the AFF4-CCNT1 interaction

tested on: not listed separately; assay: Toxicity test in mice (body weight, sickness); assay type: in vivo; conditions: 5 doses of 10 mg/kg, intraperitoneal, monitored 35 days
Protocol: FIG. 14, related to FIG. 7. SEC disruptors delay tumor progression and improve survival of MDA231-LM2 tumor mice. (A) KL-1 and KL-2 inhibit the colony formation of MDA231-LM2 cells in vitro. 5×10^3 MDA231-LM2 cells were seeded in 6-well plates and treated with KL-1 or KL-2 at the indicated doses for 5 days. Crystal violet staining was performed to stain the colonies. (B) KL-1 and KL-2 induce apoptosis in MDA231-LM2 cells. Bar graph depiction of Annexin V positive MDA231-LM2 cells after 24 hr of KL-1 and KL-2 treatments at the indicated concentrations. Data are represented as Mean+/−SD. […] Each individual line indicates the weights of each mouse during toxicity test.

SMILES	weight loss in mice
Cc1ccc(Cl)cc1NC(=O)C(=O)CC(=O)c1ccc(F)cc1 [KL-2, N-(5-chloro-2-methylphenyl)-4-oxo-(4-fluorophenyl)-2-oxobutanamide]	does not result in significant weight loss

same assay, conditions: 5 doses of 10 mg/kg, monitored 35 days

SMILES	sign of sickness in mice
Cc1ccc(Cl)cc1NC(=O)C(=O)CC(=O)c1ccc(F)cc1 [KL-2, N-(5-chloro-2-methylphenyl)-4-oxo-(4-fluorophenyl)-2-oxobutanamide]	no obvious sign of sickness was observed
